Test results reported in the supplement of paper PMC10477900.
pIC50: −log10 of the molar value. Where a name gives a salt, the structure may show the parent alone.

Columns and labels:
[1] = tested on: HCT116; test: viability inhibition vs untreated; higher = more cytotoxic; details: 72 h
[2] = tested on: HCT116; details: 72 h
Procedure: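 HCT116 control and MTA1-KO (CRISPR) HCT116 cells were seeded in 384-well plates (800 cells/well), treated 16 h later with 237 metabolism-related anticancer drugs at five doses (10 uM, 2 uM, 400 nM, 80 nM, 16 nM) for 72 h, two replicates; viability by CCK8. Values are % inhibition of viability relative to untreated cells, plus fitted IC50.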

Row | SMILES | viability inhibition ([1]; genotype: MTA1-KO, 16 nM) [%] | viability inhibition ([1]; genotype: MTA1-KO, 80 nM) [%] | viability inhibition ([1]; genotype: MTA1-KO, 400 nM) [%] | viability inhibition ([1]; genotype: MTA1-KO, 2000 nM) [%] | viability inhibition ([1]; genotype: MTA1-KO, 10000 nM) [%] | viability inhibition ([1]; genotype: control, 16 nM) [%] | viability inhibition ([1]; genotype: control, 80 nM) [%] | viability inhibition ([1]; genotype: control, 400 nM) [%] | viability inhibition ([1]; genotype: control, 2000 nM) [%] | viability inhibition ([1]; genotype: control, 10000 nM) [%] | pIC50 ([2]; genotype: MTA1-KO) | pIC50 ([2]; genotype: control)
1 | NS(=O)(=O)c1ccc(S(=O)(=O)Nc2cccc3c(Cl)c[nH]c23)cc1 [Indisulam] | -0.89 | 30.5 | 59.8 | 90.3 | 96.6 | -5.81 | -7.51 | 10.8 | 90.9 | 90.2 | 6.89 | 6.35
2 | C[C@@H](C(=O)Nc1ccc(Cl)cc1)[C@H]1CC[C@@H](c2ccnc3ccc(F)cc32)CC1 [Linrodostat] | 1.54 | 1.21 | 3.39 | 14.8 | 44.2 | 10.9 | 21.6 | 17.7 | 28.7 | 22 | < 5.00 | < 5.00
3 | C/C(=N\NC(=O)c1cccc(S(=O)(=O)N2CCOCC2)c1)c1cc(Cl)ccc1O [SP2509] | 13 | 7.45 | 18 | 98.5 | 99.6 | -5.87 | -2.4 | 14.8 | 104 | 103 | 6.16 | 6.31
4 | COc1ccc(-c2ccccc2)cc1NS(=O)(=O)c1cc(Cl)cc(Cl)c1O | 4.57 | -1.5 | -3.79 | -1.98 | 8.72 | -1.23 | 6.1 | 4.53 | 6.77 | 13.4 | < 5.00 | < 5.00
5 | O=C(O)c1nn(Cc2ccc(Cl)cc2Cl)c2ccccc12 [Lonidamine] | -2.77 | -15.4 | -12.8 | -13.1 | 17.1 | 4.32 | -14 | -10.1 | 0.337 | 23.5 | < 5.00 | < 5.00
6 | O=c1c2cc(O)c(O)cc2oc2cc(O)c([C@@H]3O[C@H](CO)[C@@H](O)[C@H](O)[C@H]3O)c(O)c12 [Mangiferin] | -12.5 | -17.6 | -11.2 | -10.4 | -14.8 | -7.62 | 8.64 | 4.62 | 6.09 | 1.62 | < 5.00 | < 5.00
7 | NC(=O)N/N=C/c1ccc([N+](=O)[O-])o1 [Furacilin] | -10.7 | -2.24 | -4.15 | 1.42 | 5.25 | 6.06 | 11.2 | 22.1 | 21.4 | -6.53 | < 5.00 | < 5.00
8 | CCN(CC)C(=S)SSC(=S)N(CC)CC [Disulfiram] | -26.6 | -25.2 | -25.3 | -20.1 | -18.3 | -6.96 | -11.2 | -6.9 | -8.44 | -2.88 | < 5.00 | < 5.00
9 | O=c1cc(N2CCOCC2)oc2c(-c3ccc4c(c3)OCCO4)csc12 [SF2523] | 7.25 | -7.41 | -9.52 | -14.8 | 68.1 | -25.2 | -16.4 | -24 | -23.1 | 55.5 | 5.06 | 5.03
10 | NCC(=O)Nc1ccc(-n2nc(C(F)(F)F)cc2-c2ccc3c(ccc4ccccc43)c2)cc1 | -0.655 | 3.58 | 10.6 | 45.3 | 77 | 8.04 | 10.5 | 9.27 | 67 | 74.1 | 5.59 | 5.82
11 | NC(=O)c1ncn([C@@H]2O[C@H](CO)[C@@H](O)[C@H]2O)c1N [AICAR (Acadesine)] | -0.376 | 0.906 | -7.18 | -5.56 | 6.99 | -3.52 | -3.58 | -3.52 | -4.22 | 37.8 | < 5.00 | < 5.00
12 | CCc1ccc(/C=C2/SC(=S)NC2=O)cc1 | -4.9 | -10 | -9.11 | -3.79 | 1.27 | 7.22 | 4.14 | 13 | 9.23 | 12.7 | < 5.00 | < 5.00
13 | O=c1cc(-c2ccc(O)cc2)oc2cc(O)cc(O)c12 [Apigenin] | -5.33 | -2.46 | -0.547 | -8.58 | 12.7 | 20.8 | 0.478 | 4.05 | 4.56 | 44.8 | < 5.00 | < 5.00
14 | CCCC[S+]([O-])c1sc2nc(-c3cccs3)cc(-c3ccccc3)c2c1N (centres undefined) | 13.3 | 12.3 | 5.6 | 9.12 | 41.9 | 5.17 | 3.85 | 2.26 | 4.74 | 8.23 | < 5.00 | < 5.00
15 | CN(Cc1cnc2nc(N)nc(N)c2n1)c1ccc(C(=O)N[C@@H](CCC(=O)O)C(=O)O)cc1 [Methotrexate] | 7.18 | -2.93 | -6.45 | -1.18 | 33 | 17.9 | 13.5 | 16.6 | 6.71 | 63.6 | < 5.00 | 5.05
16 | CNc1cc(-c2cccc(Cl)c2Cl)nc(N)n1 [TH287 hydrochloride] | 18.9 | 15.8 | 23 | 65.5 | 94.7 | 4.08 | 10.5 | 1.79 | 63.9 | 87.3 | 5.80 | 5.72
17 | CCC(C)(C)C(=O)O[C@H]1C[C@@H](C)C=C2C=C[C@H](C)[C@H](CC[C@@H]3C[C@@H](O)CC(=O)O3)[C@H]21 [Simvastatin] |  |  |  |  |  |  |  |  |  |  | < 5.00 | < 5.00
